According to the supplement of paper PMC10307832:

Columns and labels:
Test in all cases: relative viability (nuclei count vs DMSO), 5 days (fraction); higher = more cells survive
Dabrafenib = compound: CC(C)(C)c1nc(-c2cccc(NS(=O)(=O)c3c(F)cccc3F)c2F)c(-c2ccnc(N)n2)s1 [Dabrafenib]
Summary of the method: (§1)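 Lung cancer cell lines were seeded into 1536-well plates, kept overnight at 37 °C and pinned with five library-drug doses (not always all listed) spaced by √10. After 5 days, nuclei were Hoechst-stained, imaged at 4× and counted with MetaXpress. Viability is treated-well nuclei over vehicle-well nuclei, taken as a median across plates. Plates needed control CV below 25% and at least one doubling.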

VX-702 = compound: NC(=O)c1ccc(N(C(N)=O)c2c(F)cccc2F)nc1-c1ccc(F)cc1F [VX-702]
Summary of the method: as §1

Dabrafenib + Luminespib = compound: CC(C)(C)c1nc(-c2cccc(NS(=O)(=O)c3c(F)cccc3F)c2F)c(-c2ccnc(N)n2)s1 [Dabrafenib] + CCNC(=O)c1noc(-c2cc(C(C)C)c(O)cc2O)c1-c1ccc(CN2CCOCC2)cc1 [Luminespib] (partner 0.01 µM)
Summary of the method: (§2)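 Five library-drug doses in √10 steps were combined with a fixed anchor-drug dose, or a single drug was given alone, by pin tool to lung cancer cell lines in 1536-well plates the day after seeding. Nuclei were stained and counted after 5 days. Relative viability is the nuclei count in treated wells over that in vehicle wells, taken as the median of duplicate plates.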

Dabrafenib + Foretinib = compound: CC(C)(C)c1nc(-c2cccc(NS(=O)(=O)c3c(F)cccc3F)c2F)c(-c2ccnc(N)n2)s1 [Dabrafenib] + COc1cc2c(Oc3ccc(NC(=O)C4(C(=O)Nc5ccc(F)cc5)CC4)cc3F)ccnc2cc1OCCCN1CCOCC1 [Foretinib] (partner 0.25 µM)
Summary of the method: as §2

Dabrafenib + OSI-027 = compound: CC(C)(C)c1nc(-c2cccc(NS(=O)(=O)c3c(F)cccc3F)c2F)c(-c2ccnc(N)n2)s1 [Dabrafenib] + COc1cccc2cc(-c3nc([C@H]4CC[C@H](C(=O)O)CC4)n4ncnc(N)c34)[nH]c12 [OSI-027] (partner 0.5 µM)
Summary of the method: as §2

Dabrafenib + Tozasertib = compound: CC(C)(C)c1nc(-c2cccc(NS(=O)(=O)c3c(F)cccc3F)c2F)c(-c2ccnc(N)n2)s1 [Dabrafenib] + Cc1cc(Nc2cc(N3CCN(C)CC3)nc(Sc3ccc(NC(=O)C4CC4)cc3)n2)n[nH]1 [Tozasertib] (partner 0.1 µM)
Summary of the method: as §2

Dabrafenib + Dasatinib = compound: CC(C)(C)c1nc(-c2cccc(NS(=O)(=O)c3c(F)cccc3F)c2F)c(-c2ccnc(N)n2)s1 [Dabrafenib] + Cc1nc(Nc2ncc(C(=O)Nc3c(C)cccc3Cl)s2)cc(N2CCN(CCO)CC2)n1 [Dasatinib] (partner 0.075 µM)
Summary of the method: as §2

Dabrafenib + Phenformin = compound: CC(C)(C)c1nc(-c2cccc(NS(=O)(=O)c3c(F)cccc3F)c2F)c(-c2ccnc(N)n2)s1 [Dabrafenib] + N=C(N)NC(=N)NCCc1ccccc1 [Phenformin] (partner 250 µM)
Summary of the method: as §2

VX-702 + Luminespib = compound: NC(=O)c1ccc(N(C(N)=O)c2c(F)cccc2F)nc1-c1ccc(F)cc1F [VX-702] + CCNC(=O)c1noc(-c2cc(C(C)C)c(O)cc2O)c1-c1ccc(CN2CCOCC2)cc1 [Luminespib] (partner 0.01 µM)
Summary of the method: as §2

VX-702 + Foretinib = compound: NC(=O)c1ccc(N(C(N)=O)c2c(F)cccc2F)nc1-c1ccc(F)cc1F [VX-702] + COc1cc2c(Oc3ccc(NC(=O)C4(C(=O)Nc5ccc(F)cc5)CC4)cc3F)ccnc2cc1OCCCN1CCOCC1 [Foretinib] (partner 0.25 µM)
Summary of the method: as §2

VX-702 + OSI-027 = compound: NC(=O)c1ccc(N(C(N)=O)c2c(F)cccc2F)nc1-c1ccc(F)cc1F [VX-702] + COc1cccc2cc(-c3nc([C@H]4CC[C@H](C(=O)O)CC4)n4ncnc(N)c34)[nH]c12 [OSI-027] (partner 0.5 µM)
Summary of the method: as §2

VX-702 + Tozasertib = compound: NC(=O)c1ccc(N(C(N)=O)c2c(F)cccc2F)nc1-c1ccc(F)cc1F [VX-702] + Cc1cc(Nc2cc(N3CCN(C)CC3)nc(Sc3ccc(NC(=O)C4CC4)cc3)n2)n[nH]1 [Tozasertib] (partner 0.1 µM)
Summary of the method: as §2

VX-702 + Dasatinib = compound: NC(=O)c1ccc(N(C(N)=O)c2c(F)cccc2F)nc1-c1ccc(F)cc1F [VX-702] + Cc1nc(Nc2ncc(C(=O)Nc3c(C)cccc3Cl)s2)cc(N2CCN(CCO)CC2)n1 [Dasatinib] (partner 0.075 µM)
Summary of the method: as §2

VX-702 + Phenformin = compound: NC(=O)c1ccc(N(C(N)=O)c2c(F)cccc2F)nc1-c1ccc(F)cc1F [VX-702] + N=C(N)NC(=N)NCCc1ccccc1 [Phenformin] (partner 250 µM)
Summary of the method: as §2

NCI-H1623
relative viability (Dabrafenib; 0.009487 µM): 0.969 | relative viability (Dabrafenib; 0.03 µM): 0.924 | relative viability (Dabrafenib; 0.09487 µM): 1.03 | relative viability (Dabrafenib; 0.3 µM): 1.13 | relative viability (VX-702; 0.02 µM): 0.834 | relative viability (VX-702; 0.2 µM): 0.943 | relative viability (VX-702; 0.6325 µM): 1.02 | relative viability (VX-702; 2 µM): 0.905 | relative viability (Dabrafenib + Luminespib; first compound 0.009487 µM): 0.534 | relative viability (Dabrafenib + Luminespib; first compound 0.03 µM): 0.479 | relative viability (Dabrafenib + Luminespib; first compound 0.09487 µM): 0.579 | relative viability (Dabrafenib + Luminespib; first compound 0.3 µM): 0.553 | relative viability (Dabrafenib + Foretinib; first compound 0.009487 µM): 0.869 | relative viability (Dabrafenib + Foretinib; first compound 0.03 µM): 0.846 | relative viability (Dabrafenib + Foretinib; first compound 0.09487 µM): 0.829 | relative viability (Dabrafenib + Foretinib; first compound 0.3 µM): 1.12 | relative viability (Dabrafenib + OSI-027; first compound 0.009487 µM): 0.46 | relative viability (Dabrafenib + OSI-027; first compound 0.03 µM): 0.441 | relative viability (Dabrafenib + OSI-027; first compound 0.09487 µM): 0.425 | relative viability (Dabrafenib + OSI-027; first compound 0.3 µM): 0.489 | relative viability (Dabrafenib + Tozasertib; first compound 0.009487 µM): 0.466 | relative viability (Dabrafenib + Tozasertib; first compound 0.03 µM): 0.431 | relative viability (Dabrafenib + Tozasertib; first compound 0.09487 µM): 0.447 | relative viability (Dabrafenib + Tozasertib; first compound 0.3 µM): 0.524 | relative viability (Dabrafenib + Dasatinib; first compound 0.009487 µM): 0.521 | relative viability (Dabrafenib + Dasatinib; first compound 0.03 µM): 0.585 | relative viability (Dabrafenib + Dasatinib; first compound 0.09487 µM): 0.611 | relative viability (Dabrafenib + Dasatinib; first compound 0.3 µM): 0.619 | relative viability (Dabrafenib + Phenformin; first compound 0.009487 µM): 0.611 | relative viability (Dabrafenib + Phenformin; first compound 0.03 µM): 0.572 | relative viability (Dabrafenib + Phenformin; first compound 0.09487 µM): 0.602 | relative viability (Dabrafenib + Phenformin; first compound 0.3 µM): 0.682 | relative viability (VX-702 + Luminespib; first compound 0.02 µM): 0.469 | relative viability (VX-702 + Luminespib; first compound 0.2 µM): 0.496 | relative viability (VX-702 + Luminespib; first compound 0.6325 µM): 0.477 | relative viability (VX-702 + Luminespib; first compound 2 µM): 0.465 | relative viability (VX-702 + Foretinib; first compound 0.02 µM): 0.819 | relative viability (VX-702 + Foretinib; first compound 0.2 µM): 0.81 | relative viability (VX-702 + Foretinib; first compound 0.6325 µM): 0.835 | relative viability (VX-702 + Foretinib; first compound 2 µM): 0.744 | relative viability (VX-702 + OSI-027; first compound 0.02 µM): 0.403 | relative viability (VX-702 + OSI-027; first compound 0.2 µM): 0.406 | relative viability (VX-702 + OSI-027; first compound 0.6325 µM): 0.424 | relative viability (VX-702 + OSI-027; first compound 2 µM): 0.43 | relative viability (VX-702 + Tozasertib; first compound 0.02 µM): 0.444 | relative viability (VX-702 + Tozasertib; first compound 0.2 µM): 0.415 | relative viability (VX-702 + Tozasertib; first compound 0.6325 µM): 0.437 | relative viability (VX-702 + Tozasertib; first compound 2 µM): 0.426 | relative viability (VX-702 + Dasatinib; first compound 0.02 µM): 0.515 | relative viability (VX-702 + Dasatinib; first compound 0.2 µM): 0.453 | relative viability (VX-702 + Dasatinib; first compound 0.6325 µM): 0.422 | relative viability (VX-702 + Dasatinib; first compound 2 µM): 0.5 | relative viability (VX-702 + Phenformin; first compound 0.02 µM): 0.583 | relative viability (VX-702 + Phenformin; first compound 0.2 µM): 0.469 | relative viability (VX-702 + Phenformin; first compound 0.6325 µM): 0.917 | relative viability (VX-702 + Phenformin; first compound 2 µM): 0.535
